As usually defined, the IC50 is the concentration that inhibits the measured activity by half. What is called EC50 is the concentration needed to bring the measured effect to its halfway point. Usually melting point stands for the temperature of the solid-liquid transition.

The target of data set [1] is T1, 20S Human Erythrocyte Proteasome (HEP) (Homo sapiens, UniProt P20618+P28074).
T1 construct: 20S Human Erythrocyte Proteasome (HEP), purchased from Immatics Biotechnologies Inc; purchased Immatics Biotechnologies Inc., Tübingen, Germany; host or cells: human erythrocytes (natural source)
Briefly: Chymotrypsin-like activity of 20S Human Erythrocyte Proteasome (HEP), IC50 determination. Format: biochemical. The following applies: assay of Example C, inhibition of HEP. An outline of the steps:
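20S proteasome at 0.2 μg/mL (about 0.6 nM catalytic sites) in 20 mM Tris with 0.04% SDS, preincubated 15 min at 37° C with inhibitor before Suc-LLVY-AMC (100 μM final). AMC fluorescence read in the linear range; triplicates, IC50 from concentration series.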

Data set [2] has as its target T2, proteasome in Molt-4 cells (human leukemia) (Homo sapiens, UniProt P20618+P28074).
T2 sequence (P28074 60-263): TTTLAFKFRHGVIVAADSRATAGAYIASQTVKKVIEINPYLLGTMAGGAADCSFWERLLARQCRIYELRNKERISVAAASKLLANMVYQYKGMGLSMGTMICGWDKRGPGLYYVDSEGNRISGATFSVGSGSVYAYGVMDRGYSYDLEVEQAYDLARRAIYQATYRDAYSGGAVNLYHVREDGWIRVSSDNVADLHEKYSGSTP
T2 sequence (P20618 29-241): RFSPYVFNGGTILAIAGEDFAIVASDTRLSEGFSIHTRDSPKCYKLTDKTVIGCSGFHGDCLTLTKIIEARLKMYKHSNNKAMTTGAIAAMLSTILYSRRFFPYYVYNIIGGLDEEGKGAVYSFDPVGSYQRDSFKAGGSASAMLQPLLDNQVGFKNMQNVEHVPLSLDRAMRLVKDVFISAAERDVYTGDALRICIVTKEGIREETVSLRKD
Format: cell-based. The note with it: assay of Example E, inhibition of MOLT4; read-out: MOLT4 (EC50). The procedure, abridged: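 Intact Molt-4 cells (6×10^6 cells/mL) in HEPES-buffered saline were preincubated with inhibitor 15 min at 37 °C, then given cell-permeable MeOSuc-FLF-AFC at 25 μM final.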

Structures can show the parent of a compound that is named as a salt.

For `CCCCc1ccc(C(=O)N[C@@H](CNC(C)=O)C(=O)N[C@@H](CC(C)C)B2O[C@@H]3C[C@@H]4C[C@@H](C4(C)C)[C@]3(C)O2)cc1` [D.24.3, 4-butylbenzamide, N-[(1S)-1-[[[(1R)-1-[(3aS,aS,6S,7aR)-hexahydro-3a,5,5-trimethyl-4,6-methano-1,3,2-benzodioxaborol-2-yl-]-3-methylbutyl]amino]carbonyl]-2-(acetamido)ethyl]-], the melting point was 133 to 135 °C. In data set [1], the IC50 was under 10 nM. The EC50 in data set [2] is under 200 nM.

The compound `CCCCc1ccc(C(=O)N[C@@H](CNS(C)(=O)=O)C(=O)N[C@@H](CC(C)C)B2O[C@@H]3C[C@@H]4C[C@@H](C4(C)C)[C@]3(C)O2)cc1` [D.24.4, 4-butylbenzamide, N-[(1S)-1-[[[(1R)-1-[(3aS,aS,6S,7aR)-hexahydro-3a,5,5-trimethyl-4,6-methano-1,3,2-benzodioxaborol-2-yl-]-3-methylbulyl]amino]carbonyl]-2-(methanesulfonamido)ethyl]-] showed a melting point of 53 to 55 °C. In addition, in data set [1], the 50% inhibitory concentration (IC50) is under 10 nM. Also, in data set [2], the EC50 was under 200 nM.

As for `CCCCc1ccc(C(=O)N[C@@H](CNC(=O)c2csc(-c3ccncc3)n2)C(=O)N[C@@H](CC(C)C)B(O)O)cc1` [E.5.37, Boronic acid, [(1R)-1-[[(2S)-3-(4-(2-(4-pyridyl)-1,3-thiazole-4-carbonylamino)]-2-[(4-butylbenzoyl)amino]-1-oxopropyl]amino]-3-methylbutyl]], the melting point was in the range of 155 to 158 °C. In data set [1], this compound returned an IC50 of under 10 nM. Also, the EC50 in data set [2] is under 200 nM.

In the case of `CCCCc1ccc(C(=O)N[C@@H](CNC(=O)NS(=O)(=O)c2ccc(C)cc2)C(=O)N[C@@H](CC(C)C)B(O)O)cc1` [E.5.36], the melting point lay in the range of 175 to 177 °C. Further, the IC50 in data set [1] was under 100 nM. For the same compound, in data set [2], the EC50 was 200 to 2000 nM.

With `CCCCc1ccc(C(=O)N[C@@H](CNS(=O)(=O)c2cn(C)cn2)C(=O)N[C@@H](CC(C)C)B(O)O)cc1` [E.5.26, Boronic acid, [(1R)-1-[[(2S)-3-[1-methyl-1H-imidazole-4-sulfamoyl]-2-[(4-butylbenzoyl)amino]-1-oxopropyl]amino]-3-methylbutyl]], the melting point was in the range of 120 to 123 °C. The compound also returned an IC50 in data set [1] of under 10 nM. In addition, the EC50 in data set [2] is 200 to 2000 nM.

With `CC(C)C[C@H](NC(=O)[C@H](CNC(=O)OCc1ccccc1)NC(=O)c1ccc(Oc2ccccc2)cc1)B1O[C@@H]2C[C@@H]3C[C@@H](C3(C)C)[C@]2(C)O1` [D.16.9], the melting point was in the range of 100 to 103 °C.

`Cc1cc(C(=O)NC[C@H](NC(=O)c2ccc(Oc3ccccc3)cc2)C(=O)N[C@@H](CC(C)C)B2O[C@@H]3C[C@@H]4C[C@@H](C4(C)C)[C@]3(C)O2)n(C)n1` [D.24.30, 4-phenoxybenzamide, N-[(1S)-1-[[[(1R)-1-[(3aS,aS,6S,7aR)-hexahydro-3a,5,5-trimethyl-4,6-methano-1,3,2-benzodioxaborol-2-yl-]-3-methylbutyl]amino]carbonyl]-2-[(2,5-dimethyl-2H-pyrazole)carbonylamino]ethyl]-]: the melting point was in the range of 100 to 103 °C.

As to `CCCCc1ccc(C(=O)N[C@@H](CNC(=O)c2cccn2C)C(=O)N[C@@H](CC(C)C)B2O[C@@H]3C[C@@H]4C[C@@H](C4(C)C)[C@]3(C)O2)cc1` [D.24.13], the melting point was 88 to 92 °C.

`CCCCc1ccc(C(=O)N[C@@H](CNC(=O)Cc2ccc(OC)c(OC)c2)C(=O)N[C@@H](CC(C)C)B(O)O)cc1` [E.5.15, Boronic acid, [(1R)-1-[[(2S)-3-[(3,4-dimethoxyphenyl)acetylamino]-2-[(4-butylbenzoylamino)]-1-oxopropyl]amino]-3-methylbutyl]] registered a melting point of 150 to 152 °C.

As for `CCCCc1ccc(C(=O)N[C@@H](CNC(=O)c2ccno2)C(=O)N[C@@H](CC(C)C)B2O[C@@H]3C[C@@H]4C[C@@H](C4(C)C)[C@]3(C)O2)cc1` [D.24.21, 4-butylbenzamide, N-[(1S)-1-[[[(1R)-1-[(3aS,aS,6S,7aR)-hexahydro-3a,5,5-trimethyl-4,6-methano-1,3,2-benzodioxaborol-2-yl-]-3-methylbutyl]amino]carbonyl]-2-[(1-isoxazol-5-yl)-carbonylamino]ethyl]-], the melting point fell in the range of 128 to 130 °C.

In turn, `CCCCc1ccc(C(=O)N[C@@H](CNC(=O)C#Cc2ccccc2)C(=O)N[C@@H](CC(C)C)B2O[C@@H]3C[C@@H]4C[C@@H](C4(C)C)[C@]3(C)O2)cc1` [D.24.33, 4-butylbenzamide, N-[(1S)-1-[[[(1R)-1-[(3aS,4S,6S,7aR)-hexahydro-3a,5,5-trimethyl-4,6-methano-1,3,2-benzodioxaborol-2-yl]-3-methylbutyl]amino]carbonyl]-2-(3-phenylpropynoylamino)ethyl]-] had a melting point of 118 to 120 °C.

With `CCCCc1ccc(C(=O)N[C@@H](CNS(=O)(=O)c2cn(C)cn2)C(=O)N[C@@H](CC(C)C)B2O[C@@H]3C[C@@H]4C[C@@H](C4(C)C)[C@]3(C)O2)cc1` [D.24.23, 4-butylbenzamide, N-[(1S)-1-[[[(1R)-1-[(3aS,aS,6S,7aR)-hexahydro-3a,5,5-trimethyl-4,6-methano-1,3,2-benzodioxaborol-2-yl-]-3-methylbulyl]amino]carbonyl]-2-[(1-methyl-1H-imidazole-4-)sulfonylamino]ethyl]-], the melting point lay in the range of 69 to 71 °C.

In turn, `CC(C)C[C@H](NC(=O)[C@@H](NC(=O)[C@H](CC(C)C)NC(=O)OCc1ccccc1)[C@@H](C)O)B1O[C@@H]2C[C@@H]3C[C@@H](C3(C)C)[C@]2(C)O1` [D.8.1, (2S)-2-[(Benzyloxycarbonyl)amino]-4-methylpentanamide, N-[(1S,2R)-1-[[[(1R)-1-[(3aS,4S,6S,7aR)-hexahydro-3a,5,5-trimethyl-4,6-methano-1,3,2-benzodioxaborol-2-yl]-3-methylbutyl]amino]carbonyl]-2-hydroxypropyl]-] returned a melting point of 38 to 40 °C.

On to `CCCCc1ccc(C(=O)N[C@@H](CNC(=O)c2ccc(-c3ccccc3)cc2)C(=O)N[C@@H](CC(C)C)B2O[C@@H]3C[C@@H]4C[C@@H](C4(C)C)[C@]3(C)O2)cc1` [D.24.32, 4-butylbenzamide, N-[(1S)-1-[[[(1R)-1-[(3aS,4S,6S,7aR)-hexahydro-3a,5,5-trimethyl-4,6-methano-1,3,2-benzodioxaborol-2-yl]-3-methylbutyl]amino]carbonyl]-2-(4-phenylbenzoylamino)ethyl]-], for which the melting point lay within 195 to 198 °C.

Regarding `CCCCc1ccc(C(=O)N[C@@H](CNC(=O)c2ccc(-n3cncn3)cc2)C(=O)N[C@@H](CC(C)C)B(O)O)cc1` (as salt: hydrochloride) [E.5.40, Boronic acid, [(1R)-1-[[(2S)-3-(4-(1H-1,2,4-triazol-1-yl)benzoylamide)]-2-[(4-butylbenzoyl)amino]-1H-oxopropyl]amino]-3-methylbutyl] hydrochloride], the melting point fell in the range of 192 to 195 °C.

Consider `CCCCCCCCCC(=O)N[C@@H](CNC(=O)c1ccc(S(N)(=O)=O)cc1)C(=O)N[C@@H](CC(C)C)B1O[C@@H]2C[C@@H]3C[C@@H](C3(C)C)[C@]2(C)O1` [D.24.2, Decanamide, N-[(1S)-1-[[[(1R)-1-[(3aS,4S,6S,7aR)-hexahydro-3a,5,5-trimethyl-4,6-methano-1,3,2-benzodioxaborol-2-yl]-3-methylbulyl]amino]carbonyl]-2-[(4-sulfonamidophenyl)carbonyl-amido]ethyl]-], for which the melting point is 178 to 181 °C.

In turn, `CCCCc1ccc(C(=O)N[C@@H](CNC(=O)C2CCN(S(C)(=O)=O)CC2)C(=O)N[C@@H](CC(C)C)B2O[C@@H]3C[C@@H]4C[C@@H](C4(C)C)[C@]3(C)O2)cc1` [D.24.36, 4-butylbenzamide, N-[(1S)-1-[[[(1R)-1-[(3aS,aS,6S,7aR)-hexahydro-3a,5,5-trimethyl-4,6-methano-1,3,2-benzodioxaborol-2-yl-]-3-methylbutyl]amino]carbonyl]-2-(1-methanesulfonyl-piperidine-4-carbonylamino)ethyl]-] had a melting point of 170 to 172 °C.

With `CC(C)C[C@H](NC(=O)[C@H](CNS(=O)(=O)c1ccc(F)cc1)NC(=O)c1ccc(Oc2ccccc2)cc1)B1O[C@@H]2C[C@@H]3C[C@@H](C3(C)C)[C@]2(C)O1` [D.24.29, 4-phenoxybenzamide, N-[(1S)-1-[[[(1R)-1-[(3aS,4S,6S,7aR)-hexahydro-3a,5,5-trimethyl-4,6-methano-1,3,2-benzodioxaborol-2-yl]-3-methylbutyl]amino]carbonyl]-2-[4-fluoro-benzenesulfonammide]ethyl]-], the melting point fell in the range of 90 to 93 °C.

`CC(C)C[C@H](NC(=O)[C@H](CNC(=O)c1ccc(-c2ccccc2)cc1)NC(=O)c1ccc(Oc2ccccc2)cc1)B1O[C@@H]2C[C@@H]3C[C@@H](C3(C)C)[C@]2(C)O1` [D.24.31, 4-phenoxybenzamide, N-[(1S)-1-[[[(1R)-1-[(3aS,4S,6S,7aR)-hexahydro-3a,5,5-trimethyl-4,6-methano-1,3,2-benzodioxaborol-2-yl]-3-methylbutyl]amino]carbonyl]-2-(4-phenylbenzoylamino)ethyl]-] came in with a melting point of 150 to 152 °C.

Values taken from patent publication US8546608B2, “Proteasome inhibitors and methods of using the same” (Cephalon, Inc., priority 2003, dated 2013).
